Assay results published in ChEMBL document CHEMBL1201862, “PubChem BioAssay data set” (2004).
Each block holds one molecule with its values, some of them ahead of it. The source made the active and inactive calls.

Assays:
[1] = target: Heat shock protein HSP 90-alpha (Homo sapiens, UniProt P07900); assay type: functional, organism-based
X-box-binding protein 1 = X-box-binding protein 1 (Homo sapiens, UniProt P17861); assay type: functional, Cricetulus griseus;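 further: confirmatory dose-response counter-screen serving a CHOP assay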
BJ = assay: growth inhibition of engineered Ras-driven BJ cells – cell-based, alamar blue fluorescence, cherrypicked samples, dose response (AID 2631); assay type: functional; conditions: Homo sapiens;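 further: confirmatory dose-response assay in RAS-dependent BJ fibroblasts engineered with TERT, LT and ST, with cytotoxicity read by fluorescence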
HeLa = assay: Cytotoxicity counterscreen assay for transcriptional activators of heat shock protein 70 (Hsp70). [Related pubchem assays: 1203, 1252 ]; assay type: functional; conditions: Homo sapiens;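 further: cells exposed to compound for 16 hours before readout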
[2] = target: DNA damage-inducible transcript 3 protein (Mus musculus, UniProt P35639); assay type: functional, Cricetulus griseus
[3] = target: Sphingosine 1-phosphate receptor 4 (Homo sapiens, UniProt O95977); assay: Late-stage fluorescence-based dose-response cell-based counterscreen assay to identify agonists of the Sphingosine 1-Phosphate Receptor 3 (S1P3): Sphingosine 1-Phosphate Receptor 4 (S1P4) agonist assay.; assay type: functional
[4] = target: Sphingosine 1-phosphate receptor 3 (Homo sapiens, UniProt Q99500); assay: Dose Response Cell-Based Assay for Agonists of the Sphingosine 1-Phosphate Receptor 3 (S1P3): Purchased Analogues. [Related pubchem assays: 373, 439 ]; assay type: functional
[5] = target: T1, Sphingosine 1-phosphate receptor 2 (Homo sapiens, UniProt O95136); assay: Dose Response Cell-Based Assay for Agonists of the Sphingosine 1-Phosphate Receptor 2 (S1P2): Purchased Analogues. [Related pubchem assays: 1192, 373, 439 ]; assay type: functional
[6] = target: T1, Sphingosine 1-phosphate receptor 2; assay: Late-stage fluorescence-based dose-response cell-based counterscreen assay to identify agonists of the Sphingosine 1-Phosphate Receptor 3 (S1P3): Sphingosine 1-Phosphate Receptor 2 (S1P2) agonist assay.; assay type: functional
[7] = target: Sphingosine 1-phosphate receptor 1 (Homo sapiens, UniProt P21453); assay: Dose Response Cell-Based Assay for Agonists of the Sphingosine 1-Phosphate Receptor 1 (S1P1): Purchased Analogues. [Related pubchem assays: 1192, 373, 439 ]; assay type: functional
[8] = viability of uninfected HEp-2 cells – cell-based, HTS, cytotoxicity control for RSV inhibitor project, dose response (AID 2410); assay type: functional; conditions: human respiratory syncytial virus
[9] = target: Neurotensin receptor type 1 (Homo sapiens, UniProt P30989); assay type: functional;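 further: Image-based confirmatory dose-response assay measuring agonist activity at NTR1; NTR1-expressing U2OS osteosarcoma cells imaged for beta-arrestin GFP spot formation; agonist potency where compounds increase beta-arrestin recruitment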
Melanocortin receptor 4 = Melanocortin receptor 4 (Homo sapiens, UniProt P32245); assay type: functional, cell-based;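 further: Cell-based assay with luminescence read-out, confirmatory dose-response testing for agonist activity of biased ligands at MC4R; human U2OS cells with tagged receptor and beta-arrestin; potency of agonists that increase receptor coupling to beta-arrestin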
[10] = target: T2, Sentrin-specific protease 7 (Homo sapiens, UniProt Q9BQF6); assay: inhibition of human SENP7 cleavage activity – biochemical, luminescence, set 2, SAR follow-up (AID 588600); assay type: functional
T2 sequence (Q9BQF6 whole entry): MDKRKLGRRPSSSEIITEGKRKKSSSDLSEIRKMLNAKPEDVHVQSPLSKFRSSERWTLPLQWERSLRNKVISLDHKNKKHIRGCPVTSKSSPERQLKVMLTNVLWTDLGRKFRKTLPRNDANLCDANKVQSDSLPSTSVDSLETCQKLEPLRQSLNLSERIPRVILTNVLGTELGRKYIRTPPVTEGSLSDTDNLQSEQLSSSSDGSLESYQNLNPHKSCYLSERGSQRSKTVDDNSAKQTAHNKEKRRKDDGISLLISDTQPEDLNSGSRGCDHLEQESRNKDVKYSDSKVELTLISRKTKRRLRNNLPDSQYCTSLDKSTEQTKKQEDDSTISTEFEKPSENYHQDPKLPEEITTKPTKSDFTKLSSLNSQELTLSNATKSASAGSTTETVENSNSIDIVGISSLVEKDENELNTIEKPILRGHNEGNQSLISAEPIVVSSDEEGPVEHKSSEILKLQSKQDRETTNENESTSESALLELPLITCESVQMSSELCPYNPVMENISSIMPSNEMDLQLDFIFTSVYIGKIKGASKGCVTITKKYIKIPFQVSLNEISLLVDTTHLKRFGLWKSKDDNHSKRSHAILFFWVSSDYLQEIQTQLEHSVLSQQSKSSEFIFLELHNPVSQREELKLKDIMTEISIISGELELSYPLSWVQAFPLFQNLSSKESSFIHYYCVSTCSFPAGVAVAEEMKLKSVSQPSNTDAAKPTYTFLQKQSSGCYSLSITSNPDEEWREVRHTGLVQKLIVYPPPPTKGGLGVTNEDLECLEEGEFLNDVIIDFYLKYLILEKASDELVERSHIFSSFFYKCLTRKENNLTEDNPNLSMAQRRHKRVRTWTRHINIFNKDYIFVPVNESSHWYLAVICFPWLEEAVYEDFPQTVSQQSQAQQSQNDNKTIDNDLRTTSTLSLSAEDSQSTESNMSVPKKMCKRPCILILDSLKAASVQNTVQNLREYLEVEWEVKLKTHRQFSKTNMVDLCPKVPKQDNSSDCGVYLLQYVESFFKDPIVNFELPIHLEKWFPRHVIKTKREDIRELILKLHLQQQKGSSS

[11] = Luminescence Cell-Based Dose Retest to Confirm Inhibitors of Cancer Stem Cells. [Related pubchem assays (depositor defined):AID2717, AID2721]; assay type: functional; conditions: Homo sapiens
Caspase-3 = target: T3, Caspase-3 (Homo sapiens, UniProt P42574); assay: inhibition of recombinant caspase-3 activity – biochemical, luminescence, set 2, selectivity assay for SENP protease inhibitor project, SAR follow-up (AID 588599); assay type: functional
T3 sequence (P42574 whole entry): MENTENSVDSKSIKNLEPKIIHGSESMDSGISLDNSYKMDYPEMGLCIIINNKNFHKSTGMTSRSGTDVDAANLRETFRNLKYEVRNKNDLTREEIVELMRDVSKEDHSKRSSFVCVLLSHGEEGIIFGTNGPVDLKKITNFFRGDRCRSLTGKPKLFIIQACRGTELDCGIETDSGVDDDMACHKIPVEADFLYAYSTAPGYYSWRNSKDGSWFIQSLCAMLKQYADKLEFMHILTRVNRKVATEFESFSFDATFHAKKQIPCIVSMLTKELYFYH

[12] = target: T4, Sentrin-specific protease 6 (Homo sapiens, UniProt Q9GZR1); assay: inhibition of human SENP6 catalytic domain – biochemical, luminescence, set 2, SAR follow-up (AID 588598); assay type: functional
T4 sequence (Q9GZR1 whole entry): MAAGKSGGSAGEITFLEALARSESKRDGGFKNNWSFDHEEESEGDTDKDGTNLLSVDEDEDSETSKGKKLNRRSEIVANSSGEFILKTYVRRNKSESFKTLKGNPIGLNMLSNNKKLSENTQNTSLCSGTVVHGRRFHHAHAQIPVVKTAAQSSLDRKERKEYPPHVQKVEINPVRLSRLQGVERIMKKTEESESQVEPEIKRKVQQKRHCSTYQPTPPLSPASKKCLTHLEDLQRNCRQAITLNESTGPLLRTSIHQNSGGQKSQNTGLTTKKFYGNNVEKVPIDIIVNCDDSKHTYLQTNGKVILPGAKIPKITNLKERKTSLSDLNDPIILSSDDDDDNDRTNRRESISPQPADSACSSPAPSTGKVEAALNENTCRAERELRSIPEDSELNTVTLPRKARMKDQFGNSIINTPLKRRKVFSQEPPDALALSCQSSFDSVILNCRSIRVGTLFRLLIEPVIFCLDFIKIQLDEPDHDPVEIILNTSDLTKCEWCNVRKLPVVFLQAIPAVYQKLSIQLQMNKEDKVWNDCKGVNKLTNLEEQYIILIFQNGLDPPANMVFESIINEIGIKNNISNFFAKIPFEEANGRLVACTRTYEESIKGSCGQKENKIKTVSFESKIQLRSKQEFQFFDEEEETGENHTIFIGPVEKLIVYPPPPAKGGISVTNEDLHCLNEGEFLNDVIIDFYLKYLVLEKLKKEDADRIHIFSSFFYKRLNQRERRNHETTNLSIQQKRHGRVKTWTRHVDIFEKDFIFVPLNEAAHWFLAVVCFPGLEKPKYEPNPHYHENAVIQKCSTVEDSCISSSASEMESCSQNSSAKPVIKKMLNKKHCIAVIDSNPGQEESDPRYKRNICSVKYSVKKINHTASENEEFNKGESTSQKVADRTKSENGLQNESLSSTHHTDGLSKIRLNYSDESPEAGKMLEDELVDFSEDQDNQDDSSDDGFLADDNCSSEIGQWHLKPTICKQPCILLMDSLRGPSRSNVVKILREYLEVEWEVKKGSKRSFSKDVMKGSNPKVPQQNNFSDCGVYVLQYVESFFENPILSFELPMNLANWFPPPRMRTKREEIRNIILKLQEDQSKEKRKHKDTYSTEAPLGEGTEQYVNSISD

[13] = target: T5, Sentrin-specific protease 8 (Homo sapiens, UniProt Q96LD8); assay: inhibition of sentrin protease 8 – biochemical, luminescence, set 2, SAR follow-up (AID 588601); assay type: functional
T5 sequence (Q96LD8 whole entry): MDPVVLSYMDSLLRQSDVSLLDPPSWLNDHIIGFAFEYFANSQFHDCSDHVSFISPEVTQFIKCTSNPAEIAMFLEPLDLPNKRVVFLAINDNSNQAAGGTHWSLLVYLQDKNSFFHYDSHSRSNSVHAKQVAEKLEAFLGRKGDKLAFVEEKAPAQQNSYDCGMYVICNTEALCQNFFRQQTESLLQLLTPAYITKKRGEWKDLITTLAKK

[14] = target: DNA dC->dU-editing enzyme APOBEC-3G (Homo sapiens, UniProt Q9HC16); assay: inhibition of APOBEC3G ssDNA deamination – biochemical, fluorescence, single-stranded DNA substrate, SAR follow-up (AID 602136); assay type: functional; conditions: read-out: IC50_Mean
[15] = target: DNA dC->dU-editing enzyme APOBEC-3A (Homo sapiens, UniProt P31941); assay: SAR analysis of small molecule inhibitors of APOBEC3A DNA Deaminase via a fluorescence-based single-stranded DNA deaminase assay.; assay type: functional; conditions: read-out: IC50_Mean
[16] = target: T6, Neuropeptides B/W receptor type 1 (Homo sapiens, UniProt P48145); assay: human NPBW1 receptor blockade, IC50 – cell-based, fluorescence, dose response, set 5, late-stage follow-up (AID 588566); assay type: functional
T6 sequence (P48145 whole entry): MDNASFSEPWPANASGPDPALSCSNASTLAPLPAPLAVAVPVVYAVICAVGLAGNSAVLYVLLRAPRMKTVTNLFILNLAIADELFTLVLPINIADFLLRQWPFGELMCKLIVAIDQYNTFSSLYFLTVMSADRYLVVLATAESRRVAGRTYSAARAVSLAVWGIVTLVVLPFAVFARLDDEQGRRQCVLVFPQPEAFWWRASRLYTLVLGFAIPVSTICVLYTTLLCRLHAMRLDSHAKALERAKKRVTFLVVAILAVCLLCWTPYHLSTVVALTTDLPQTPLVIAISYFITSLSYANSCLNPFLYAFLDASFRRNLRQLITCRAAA

[17] = target: T7, Melanin-concentrating hormone receptor 1 (Homo sapiens, UniProt Q99705); assay: Late-stage fluorescence-based counterscreen for antagonists of the G-protein coupled receptor 7 (GPR7): cell-based dose response assay to identify antagonists of the melanin-concentrating hormone receptor 1 (MCHR1) Set 5.; assay type: functional
[18] = target: T6, Neuropeptides B/W receptor type 1; assay: human NPBW1 receptor blockade, IC50 – cell-based, fluorescence, dose response, set 6, late-stage follow-up (AID 588583); assay type: functional
[19] = target: T7, Melanin-concentrating hormone receptor 1; assay: Late-stage fluorescence-based counterscreen for antagonists of the G-protein coupled receptor 7 (GPR7): cell-based dose response assay to identify antagonists of the melanin-concentrating hormone receptor 1 (MCHR1) Set 6.; assay type: functional
[20] = target: Latent membrane protein 1 (Human herpesvirus 4 (strain B95-8), UniProt P03230); assay: LMP1 TES1 pathway selectivity over dsRED control – imaging, HEK293T, dual-color eGFP/dsRED, cherry-picks, selectivity assay for LMP1 NF-kB inhibitor project, dose response (AID 588398); assay type: functional, cell-based
Latent membrane protein 1, sequence (P03230 whole entry): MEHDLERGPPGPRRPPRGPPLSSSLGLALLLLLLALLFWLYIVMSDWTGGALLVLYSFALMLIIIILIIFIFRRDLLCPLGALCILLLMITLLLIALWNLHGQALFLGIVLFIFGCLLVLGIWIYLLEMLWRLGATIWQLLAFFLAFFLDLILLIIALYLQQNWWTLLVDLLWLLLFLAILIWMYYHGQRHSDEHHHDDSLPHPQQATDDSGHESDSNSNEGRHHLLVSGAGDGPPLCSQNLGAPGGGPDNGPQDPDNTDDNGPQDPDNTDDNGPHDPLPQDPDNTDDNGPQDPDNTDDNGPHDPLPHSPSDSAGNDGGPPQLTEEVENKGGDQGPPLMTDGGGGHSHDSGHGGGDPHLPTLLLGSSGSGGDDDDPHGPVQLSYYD

T7 sequence (Q99705 whole entry): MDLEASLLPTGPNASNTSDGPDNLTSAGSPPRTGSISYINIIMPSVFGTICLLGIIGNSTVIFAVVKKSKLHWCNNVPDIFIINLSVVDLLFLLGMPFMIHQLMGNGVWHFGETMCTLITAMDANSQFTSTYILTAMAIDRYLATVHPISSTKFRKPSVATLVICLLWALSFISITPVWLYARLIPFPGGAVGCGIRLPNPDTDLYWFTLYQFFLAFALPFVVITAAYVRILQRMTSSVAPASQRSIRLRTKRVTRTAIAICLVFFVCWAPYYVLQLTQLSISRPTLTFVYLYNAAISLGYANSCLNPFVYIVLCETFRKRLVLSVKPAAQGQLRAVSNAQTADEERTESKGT
T1 sequence (O95136 whole entry): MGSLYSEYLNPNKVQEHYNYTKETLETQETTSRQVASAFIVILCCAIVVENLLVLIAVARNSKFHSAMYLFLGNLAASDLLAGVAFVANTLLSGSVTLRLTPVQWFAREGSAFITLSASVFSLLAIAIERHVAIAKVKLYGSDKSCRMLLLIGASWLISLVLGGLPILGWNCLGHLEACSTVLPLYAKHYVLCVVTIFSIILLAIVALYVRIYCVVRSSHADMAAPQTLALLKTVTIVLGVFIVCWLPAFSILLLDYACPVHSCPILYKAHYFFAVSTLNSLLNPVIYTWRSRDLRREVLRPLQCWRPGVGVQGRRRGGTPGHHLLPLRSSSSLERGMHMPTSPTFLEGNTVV
DNA damage-inducible transcript 3 protein, sequence (P35639 whole entry): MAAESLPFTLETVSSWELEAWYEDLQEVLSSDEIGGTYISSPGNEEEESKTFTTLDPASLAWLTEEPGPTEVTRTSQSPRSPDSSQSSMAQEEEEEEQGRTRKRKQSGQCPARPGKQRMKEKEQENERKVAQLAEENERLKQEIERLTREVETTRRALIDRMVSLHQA
X-box-binding protein 1, sequence (P17861 whole entry): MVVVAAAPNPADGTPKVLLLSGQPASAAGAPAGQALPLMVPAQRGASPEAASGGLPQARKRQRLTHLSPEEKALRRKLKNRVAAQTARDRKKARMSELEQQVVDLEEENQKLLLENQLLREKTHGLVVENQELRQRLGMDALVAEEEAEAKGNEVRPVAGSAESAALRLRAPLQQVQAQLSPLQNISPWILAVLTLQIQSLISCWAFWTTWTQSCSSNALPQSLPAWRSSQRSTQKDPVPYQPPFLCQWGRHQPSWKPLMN
Sphingosine 1-phosphate receptor 4, sequence (O95977 whole entry): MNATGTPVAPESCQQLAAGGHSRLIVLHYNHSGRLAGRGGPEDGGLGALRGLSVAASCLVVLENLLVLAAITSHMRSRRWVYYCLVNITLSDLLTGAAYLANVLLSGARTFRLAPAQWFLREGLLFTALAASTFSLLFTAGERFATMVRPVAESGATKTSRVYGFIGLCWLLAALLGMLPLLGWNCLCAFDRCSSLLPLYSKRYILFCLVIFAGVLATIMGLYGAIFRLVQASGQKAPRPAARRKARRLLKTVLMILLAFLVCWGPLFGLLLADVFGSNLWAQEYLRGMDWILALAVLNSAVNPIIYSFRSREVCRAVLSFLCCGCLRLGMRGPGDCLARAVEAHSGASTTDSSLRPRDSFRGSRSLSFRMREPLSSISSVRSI
DNA dC->dU-editing enzyme APOBEC-3A, sequence (P31941 whole entry): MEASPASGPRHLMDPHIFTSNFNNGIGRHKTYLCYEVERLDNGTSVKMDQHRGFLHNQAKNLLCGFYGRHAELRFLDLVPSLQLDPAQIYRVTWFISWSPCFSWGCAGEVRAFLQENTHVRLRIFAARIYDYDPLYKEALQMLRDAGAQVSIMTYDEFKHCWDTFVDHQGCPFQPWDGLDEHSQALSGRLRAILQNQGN
DNA dC->dU-editing enzyme APOBEC-3G, sequence (Q9HC16 whole entry): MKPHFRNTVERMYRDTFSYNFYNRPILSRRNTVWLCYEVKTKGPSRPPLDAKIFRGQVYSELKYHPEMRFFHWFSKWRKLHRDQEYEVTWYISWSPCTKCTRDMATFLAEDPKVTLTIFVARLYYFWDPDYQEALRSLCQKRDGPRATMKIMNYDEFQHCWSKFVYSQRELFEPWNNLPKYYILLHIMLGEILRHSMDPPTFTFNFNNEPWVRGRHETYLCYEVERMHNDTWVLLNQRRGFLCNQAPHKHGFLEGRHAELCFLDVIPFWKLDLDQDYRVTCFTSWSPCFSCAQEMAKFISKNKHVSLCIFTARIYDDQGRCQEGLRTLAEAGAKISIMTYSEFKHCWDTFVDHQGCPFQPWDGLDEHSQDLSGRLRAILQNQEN
Sphingosine 1-phosphate receptor 3, sequence (Q99500 whole entry): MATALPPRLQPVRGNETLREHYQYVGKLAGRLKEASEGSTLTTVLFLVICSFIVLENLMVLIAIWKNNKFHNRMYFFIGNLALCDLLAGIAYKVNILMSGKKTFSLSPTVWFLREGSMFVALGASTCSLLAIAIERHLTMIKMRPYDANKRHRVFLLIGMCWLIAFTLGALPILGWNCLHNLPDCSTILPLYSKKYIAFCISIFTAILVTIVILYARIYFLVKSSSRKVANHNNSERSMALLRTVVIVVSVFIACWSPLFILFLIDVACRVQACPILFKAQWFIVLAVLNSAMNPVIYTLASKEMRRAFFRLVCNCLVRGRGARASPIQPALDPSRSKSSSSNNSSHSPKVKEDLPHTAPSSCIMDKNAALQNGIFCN
Melanocortin receptor 4, sequence (P32245 whole entry): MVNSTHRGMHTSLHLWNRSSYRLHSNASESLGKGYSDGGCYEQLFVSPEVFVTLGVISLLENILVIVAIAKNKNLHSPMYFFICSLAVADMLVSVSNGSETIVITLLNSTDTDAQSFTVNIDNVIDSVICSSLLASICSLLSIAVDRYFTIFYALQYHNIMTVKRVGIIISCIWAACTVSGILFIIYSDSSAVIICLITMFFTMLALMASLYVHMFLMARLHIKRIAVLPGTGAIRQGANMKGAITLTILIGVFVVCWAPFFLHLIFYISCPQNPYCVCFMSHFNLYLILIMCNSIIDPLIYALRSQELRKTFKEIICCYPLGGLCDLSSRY
Neurotensin receptor type 1, sequence (P30989 whole entry): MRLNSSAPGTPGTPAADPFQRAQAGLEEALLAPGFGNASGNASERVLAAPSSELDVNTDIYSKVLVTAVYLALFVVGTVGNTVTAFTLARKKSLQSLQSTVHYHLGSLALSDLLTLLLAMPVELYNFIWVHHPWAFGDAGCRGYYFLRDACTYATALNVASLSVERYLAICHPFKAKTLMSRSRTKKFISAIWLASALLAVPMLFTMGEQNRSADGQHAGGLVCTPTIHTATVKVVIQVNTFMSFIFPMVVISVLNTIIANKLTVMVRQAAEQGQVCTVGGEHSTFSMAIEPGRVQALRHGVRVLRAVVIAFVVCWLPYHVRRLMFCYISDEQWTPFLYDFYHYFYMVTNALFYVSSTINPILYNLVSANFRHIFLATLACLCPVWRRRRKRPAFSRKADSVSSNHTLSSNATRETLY
Sphingosine 1-phosphate receptor 1, sequence (P21453 whole entry): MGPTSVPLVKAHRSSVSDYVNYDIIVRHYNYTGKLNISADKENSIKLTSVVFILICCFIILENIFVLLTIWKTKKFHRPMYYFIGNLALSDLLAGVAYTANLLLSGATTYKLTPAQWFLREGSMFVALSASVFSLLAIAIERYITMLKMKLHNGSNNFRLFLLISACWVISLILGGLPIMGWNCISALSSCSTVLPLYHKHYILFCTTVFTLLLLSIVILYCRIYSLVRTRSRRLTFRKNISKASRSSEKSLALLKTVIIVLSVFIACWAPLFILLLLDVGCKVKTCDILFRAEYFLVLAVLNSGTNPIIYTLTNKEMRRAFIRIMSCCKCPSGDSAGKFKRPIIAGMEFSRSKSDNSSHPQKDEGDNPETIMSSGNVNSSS

SMILES: O=C1/C(=C/c2ccncc2)CCC/C1=C\c1ccncc1
AC50 [1]: 8.7 µM (active) | Absolute IC50 (XBP1) (X-box-binding protein 1): 10 µM | EC50 (BJ): 0.474 µM (active) | CC50 (HeLa): > 1.22 µM (not active) | Absolute IC50 (CHOP) [2]: 10 µM

SMILES: CCCc1cc(C(=O)N(C2CCCCC2)C2CCCCC2)no1
EC50 [3]: > 50 µM (inactive) | EC50 [4]: 0.243 µM (active) | EC50 [5]: > 10 µM (not active) | EC50 [6]: > 50 µM (inactive) | Absolute IC50 (XBP1) (X-box-binding protein 1): 10 µM | Absolute IC50 (CHOP) [2]: 10 µM | EC50 [7]: > 50 µM (not active)

SMILES: O=C(N/N=C/c1c[nH]c2ccccc12)C1CC1(c1ccccc1)c1ccccc1 (configuration not stated)
CC50 [8]: 16 µM (active) | EC50 [9]: 12.3 µM (active) | EC50 (Melanocortin receptor 4): > 89.2 µM (inactive) | IC50 [10]: > 99 µM (inactive) | AC50 [11]: 4.64 µM (active) | IC50 (Caspase-3): > 99 µM (inactive) | IC50 [12]: > 99 µM (inactive) | IC50 [13]: > 99 µM (inactive)

SMILES: O=C(CSc1nc2cccnc2[nH]1)Nc1cccc(Br)c1
IC50 [14]: > 99 µM (inactive) | IC50 [15]: > 99 µM (inactive)

Further lines, results first:

IC50 [16]: 0.234 µM (active) | IC50 [17]: > 20 µM (inactive)
SMILES: CCOc1ccc(C(C#N)c2c(Cl)cnn(Cc3cccc4ccccc34)c2=O)cc1 (configuration not stated)

IC50 [18]: 0.706 µM (active) | IC50 [19]: 0.706 µM (active)
SMILES: N#CC(c1c(F)cccc1Cl)c1c(Cl)cnn(Cc2cccc3ccccc23)c1=O (configuration not stated)

AC50 [20]: 70.2 µM (active)
SMILES: CCN1C(=O)[C@@H]2[C@@H](c3ccc(-c4ccc(Cl)c(Cl)c4)cc3)N3CCC[C@@]3(C(=O)OC)[C@@H]2C1=O
